ChEMBL document CHEMBL4680138, “A 18β-glycyrrhetinic acid conjugate with Vorinostat degrades HDAC3 and HDAC6 with improved antitumor effects” (Eur J Med Chem, 2020)
pIC50: −log10 of the molar value. Calls of active or inactive are those of the source. The rule behind the calls is not given here.

Legend:
HL-60 [1] = assay: Antiproliferative activity against human HL-60 cells assessed as cell growth inhibition after 72 hrs by trypan blue staining based cell counting assay; format: functional; conditions: HL-60, 72 h
PC-3 = assay: Cytotoxicity against human PC-3 cells assessed as reduction in cell viability after 96 hrs by MTT assay; format: functional, cell-based; conditions: PC-3, 96 h
HL-60 [2] = assay: Induction of apoptosis in human HL-60 cells assessed as late apoptotic cells at 1 uM measured after 24 hrs by Annexin-V/FITC and propidium iodide staining based flow cytometry (reference value: 7.24 %); format: functional
HL-60 [3] = assay: Induction of apoptosis in human HL-60 cells assessed as early apoptotic cells at 1 uM measured after 24 hrs by Annexin-V/FITC and propidium iodide staining based flow cytometry (reference value: 2.46 %); format: functional
HL-60 [4] = assay: Induction of apoptosis in human HL-60 cells assessed as late apoptotic cells at 0.5 uM measured after 24 hrs by Annexin-V/FITC and propidium iodide staining based flow cytometry (reference value: 7.24 %); format: functional
HL-60 [5] = assay: Induction of apoptosis in human HL-60 cells assessed as necrotic cells at 2 uM measured after 24 hrs by Annexin-V/FITC and propidium iodide staining based flow cytometry (reference value: 1.01 %); format: functional
HL-60 [6] = assay: Induction of apoptosis in human HL-60 cells assessed as increase in accumulation at sub-G1 phase at 2 uM after 24 hrs by propidium iodide staining based flow cytometry (reference value: 2.72 %); format: functional
HL-60 [7] = assay: Induction of apoptosis in human HL-60 cells assessed as live cells at 1 uM measured after 24 hrs by Annexin-V/FITC and propidium iodide staining based flow cytometry (reference value: 89.29 %); format: functional
HL-60 [8] = assay: Induction of apoptosis in human HL-60 cells assessed as necrotic cells at 1 uM measured after 24 hrs by Annexin-V/FITC and propidium iodide staining based flow cytometry (reference value: 1.01 %); format: functional
HL-60 [9] = assay: Induction of apoptosis in human HL-60 cells assessed as early apoptotic cells at 0.5 uM measured after 24 hrs by Annexin-V/FITC and propidium iodide staining based flow cytometry (reference value: 2.46 %); format: functional
HL-60 [10] = assay: Upregulation of acetylated alpha-tubulin level in human HL-60 cells at 2 uM measured after 12 hrs by Western blot analysis; format: functional, cell-based
HL-60 [11] = assay: Induction of apoptosis in human HL-60 cells assessed as increase in accumulation at sub-G1 phase at 1 uM after 24 hrs by propidium iodide staining based flow cytometry (reference value: 2.72 %); format: functional
HL-60 [12] = assay: Upregulation of acetylated H3 level in human HL-60 cells at 2 uM measured after 12 hrs by Western blot analysis; format: functional, cell-based
HL-60 [13] = assay: Induction of apoptosis in human HL-60 cells assessed as increase in accumulation at sub-G1 phase at 0.5 uM after 24 hrs by propidium iodide staining based flow cytometry (reference value: 2.72 %); format: functional
HL-60 [14] = assay: Induction of apoptosis in human HL-60 cells assessed as live cells at 0.5 uM measured after 24 hrs by Annexin-V/FITC and propidium iodide staining based flow cytometry (reference value: 89.29 %); format: functional
HL-60 [15] = assay: Induction of apoptosis in human HL-60 cells assessed as late apoptotic cells at 2 uM measured after 24 hrs by Annexin-V/FITC and propidium iodide staining based flow cytometry (reference value: 7.24 %); format: functional
HL-60 [16] = assay: Induction of apoptosis in human HL-60 cells assessed as live cells at 2 uM measured after 24 hrs by Annexin-V/FITC and propidium iodide staining based flow cytometry (reference value: 89.29 %); format: functional
HL-60 [17] = assay: Induction of apoptosis in human HL-60 cells assessed as necrotic cells at 0.5 uM measured after 24 hrs by Annexin-V/FITC and propidium iodide staining based flow cytometry (reference value: 1.01 %); format: functional
HL-60 [18] = assay: Induction of apoptosis in human HL-60 cells assessed as early apoptotic cells at 2 uM measured after 24 hrs by Annexin-V/FITC and propidium iodide staining based flow cytometry (reference value: 2.46 %); format: functional

| Structure (SMILES) | pIC50 (HL-60 [1]) | pIC50 (PC-3) | also measured |
| --- | --- | --- | --- |
| CC1(C)[C@@H](O)CC[C@]2(C)[C@H]3C(=O)C=C4[C@@H]5C[C@@](C)(C(=O)NCCCCCC(=O)NO)CC[C@]5(C)CC[C@@]4(C)[C@]3(C)CC[C@@H]12 | 5.06 | 4.87 | – |
| CC1(C)[C@@H](O)CC[C@]2(C)[C@H]3C(=O)C=C4[C@@H]5C[C@@](C)(C(=O)N6CCN(c7ccc(NC(=O)CCCCCCC(=O)NO)cc7)CC6)CC[C@]5(C)CC[C@@]4(C)[C@]3(C)CC[C@@H]12 | 6.14 | 5.61 | – |
| CC1(C)[C@@H](O)CC[C@]2(C)[C@H]3C(=O)C=C4[C@@H]5C[C@@](C)(C(=O)OCCCOc6ccc(NC(=O)CCCCCC(=O)NO)cc6)CC[C@]5(C)CC[C@@]4(C)[C@]3(C)CC[C@@H]12 | 5.79 | 5.37 | – |
| CC1(C)[C@@H](O)CC[C@]2(C)[C@H]3C(=O)C=C4[C@@H]5C[C@@](C)(C(=O)OCCCOc6ccc(NC(=O)CCCCCCC(=O)NO)cc6)CC[C@]5(C)CC[C@@]4(C)[C@]3(C)CC[C@@H]12 | 5.56 | 5.27 | – |
| CC1(C)[C@@H](O)CC[C@]2(C)[C@H]3C(=O)C=C4[C@@H]5C[C@@](C)(C(=O)N6CCN(c7ccc(NC(=O)CCCC(=O)NO)cc7)CC6)CC[C@]5(C)CC[C@@]4(C)[C@]3(C)CC[C@@H]12 | 5.32 | 4.93 | – |
| CC1(C)[C@@H](O)CC[C@]2(C)[C@H]3C(=O)C=C4[C@@H]5C[C@@](C)(C(=O)O)CC[C@]5(C)CC[C@@]4(C)[C@]3(C)CC[C@@H]12 [ENOXOLONE] | 4.26 | 3.98 | – |
| CC1(C)[C@@H](O)CC[C@]2(C)[C@H]3C(=O)C=C4[C@@H]5C[C@@](C)(C(=O)OCCOc6ccc(NC(=O)CCCCC(=O)NO)cc6)CC[C@]5(C)CC[C@@]4(C)[C@]3(C)CC[C@@H]12 | 5.68 | 5.09 | – |
| CC1(C)[C@@H](O)CC[C@]2(C)[C@H]3C(=O)C=C4[C@@H]5C[C@@](C)(C(=O)NCCCCC(=O)NO)CC[C@]5(C)CC[C@@]4(C)[C@]3(C)CC[C@@H]12 | 4.81 | 4.73 | – |
| CC1(C)[C@@H](O)CC[C@]2(C)[C@H]3C(=O)C=C4[C@@H]5C[C@@](C)(C(=O)N6CCN(c7ccc(NC(=O)CCCCCC(=O)NO)cc7)CC6)CC[C@]5(C)CC[C@@]4(C)[C@]3(C)CC[C@@H]12 | 5.75 | 5.51 | – |
| CC1(C)[C@@H](O)CC[C@]2(C)[C@H]3C(=O)C=C4[C@@H]5C[C@@](C)(C(=O)N6CCN(c7ccc(NC(=O)CCCCC(=O)NO)cc7)CC6)CC[C@]5(C)CC[C@@]4(C)[C@]3(C)CC[C@@H]12 | 5.47 | 5.26 | – |
| CC1(C)[C@@H](O)CC[C@]2(C)[C@H]3C(=O)C=C4[C@@H]5C[C@@](C)(C(=O)NCCCC(=O)NO)CC[C@]5(C)CC[C@@]4(C)[C@]3(C)CC[C@@H]12 | 4.67 | 4.60 | – |
| CC1(C)[C@@H](O)CC[C@]2(C)[C@H]3C(=O)C=C4[C@@H]5C[C@@](C)(C(=O)OCCOc6ccc(NC(=O)CCCC(=O)NO)cc6)CC[C@]5(C)CC[C@@]4(C)[C@]3(C)CC[C@@H]12 | 5.82 | 5.16 | – |
| CC1(C)[C@@H](O)CC[C@]2(C)[C@H]3C(=O)C=C4[C@@H]5C[C@@](C)(C(=O)OCCCOc6ccc(NC(=O)CCCCC(=O)NO)cc6)CC[C@]5(C)CC[C@@]4(C)[C@]3(C)CC[C@@H]12 | 5.85 | 5.40 | – |
| O=C(CCCCCCC(=O)Nc1ccccc1)NO [VORINOSTAT] | – | – | Activity (HL-60 [2]): 12.96%; Activity (HL-60 [3]): 2.42%; Activity (HL-60 [4]): 8.95%; Activity (HL-60 [5]): 5.87%; Activity (HL-60 [6]): 43.31%; Activity (HL-60 [7]): 82.27%; Activity (HL-60 [8]): 2.36%; Activity (HL-60 [9]): 2.41%; Activity (HL-60 [10]): Active; Activity (HL-60 [11]): 5.34%; Activity (HL-60 [12]): Active; Activity (HL-60 [13]): 2.07%; Activity (HL-60 [14]): 86.69%; Activity (HL-60 [15]): 39.71%; Activity (HL-60 [16]): 49.4%; Activity (HL-60 [17]): 1.94%; Activity (HL-60 [18]): 5.02% |
| CC1(C)[C@@H](O)CC[C@]2(C)[C@H]3C(=O)C=C4[C@@H]5C[C@@](C)(C(=O)OCCOc6ccc(NC(=O)CCCCCC(=O)NO)cc6)CC[C@]5(C)CC[C@@]4(C)[C@]3(C)CC[C@@H]12 | 5.55 | 5.43 | – |
| CC1(C)[C@@H](O)CC[C@]2(C)[C@H]3C(=O)C=C4[C@@H]5C[C@@](C)(C(=O)OCCCOc6ccc(NC(=O)CCCC(=O)NO)cc6)CC[C@]5(C)CC[C@@]4(C)[C@]3(C)CC[C@@H]12 | 5.87 | 5.35 | – |
| CC1(C)[C@@H](O)CC[C@]2(C)[C@H]3C(=O)C=C4[C@@H]5C[C@@](C)(C(=O)OCCOc6ccc(NC(=O)CCCCCCC(=O)NO)cc6)CC[C@]5(C)CC[C@@]4(C)[C@]3(C)CC[C@@H]12 | 5.35 | 5.07 | – |
| COC(=O)[C@@]1(C)CC[C@]2(C)CC[C@]3(C)C(=CC(=O)[C@@H]4[C@@]5(C)C=C(C#N)C(=O)C(C)(C)[C@@H]5CC[C@]43C)[C@@H]2C1 | 5.87 | 5.77 | Activity (HL-60 [2]): 13.31%; Activity (HL-60 [3]): 3.27%; Activity (HL-60 [4]): 9%; Activity (HL-60 [5]): 3.1%; Activity (HL-60 [6]): 19.18%; Activity (HL-60 [7]): 81.11%; Activity (HL-60 [8]): 2.31%; Activity (HL-60 [9]): 1.77%; Activity (HL-60 [11]): 3.57%; Activity (HL-60 [12]): inactive; Activity (HL-60 [13]): 2.91%; Activity (HL-60 [14]): 87.34%; Activity (HL-60 [15]): 16.96%; Activity (HL-60 [16]): 77.42%; Activity (HL-60 [17]): 1.89%; Activity (HL-60 [18]): 2.52% |
| CC1(C)[C@@H](O)CC[C@]2(C)[C@H]3C(=O)C=C4[C@@H]5C[C@@](C)(C(=O)NCCCCCCC(=O)NO)CC[C@]5(C)CC[C@@]4(C)[C@]3(C)CC[C@@H]12 | 5.02 | 4.93 | – |
